# Assay results published in article PMC8400200, “Selective Moonlighting Cell-Penetrating Peptides” (Pharmaceutics, 2021).
# “Also recorded” adds a separate entry of the source.
# What was measured:
# yeast or mammalian cells = settings: cited from earlier work
# From the text: Additionally, three other peptides were designed to test the activation strategy (see Table 1). […] For this strategy we chose the peptidase neprilysin (also known as CD10), known to be overexpressed in some types of cancer tissues. The cleavage site sequence recognized by this protease has been well characte ...
# [1] = system: HEK293T, HEK293T-NEP and HeLa cells; assay: Internalization analysis by confocal microscopy in mammalian cells; type: cell-based; settings: 5 μM, 30 min, CellMask Green membrane stain
# Protocol: (§1) This procedure was adapted from a previously reported protocol. Cells were incubated with TatNep, TatNepNoCPP or D-TatNepNoCPP peptides at a concentration of 10, 5 and 1 μM (see Table 1). All peptides were dissolved in a 1:4 DMSO-Water solution. Cells were incubated with each peptide for 30 min, then washed with PBS three times and fixed with 4% paraformaldehyde (Merck, Naucalpan de Juárez Edo. de Mexico, Mexico) for 30 min at room temperature. Afterwards, samples were washed with PBS three times and then incubated with 1 μg/mL of DAPI for 2 min at room temperature. For the images, 1000 cells were taken (3 replicates) by using the epifluorescent microscopy (Nikon ECLIPSE Ti-U). Due to a slight precipitation of the peptides, to avoid interference with the quantification, the 10% with the highest fluorescence intensity were considered outliers and were removed for all conditions. A total of 2700 cells remained for further analysis. Internalization analysis was performed by confocal microscopy. Cells were incubated with any of the three peptides at a concentration of 5 μM for 30 min (the fluorescence was strong and the precipitation reduced), then cell membranes were stained with the CellMask^TM Green Plasma Membrane Stain (ThermoFisher, Waltham, MA, USA) following specifications of the provider. Images were acquired with a Zeiss LSM800 microscope using the ZEN 2.6 (blue edition) software. All images were analyzed with the Fiji/ImageJ Software and are available at http://bis.ifc.unam.mx/ironbios/selmoonCPP/ (accessed on 21 July 2021).
# [2] = system: HEK293T, HEK293T-NEP and HeLa cells; assay: Internalization assay, epifluorescence microscopy, compared or averaged over the three cell lines; type: cell-based; settings: for internalization compared between peptides: medians of box plots (Figure 6A, 6B); for internalization compared between cell lines: medians of box plots (Figure 6A)
# Protocol: as §1
# For the mammalian cells images obtained from epifluorescence microscopy, a normality Shapiro–Wilk test was done for each individual condition (27 conditions).
# MATa cells = settings: cited from earlier work
# From the text: In the targeted strategy, we noticed differences in penetrating efficiencies among the three targeted CPPs. […] This is observed when MATa are exposed to these peptides separately or mixed with MATα cells. […] However, if NLS-α-CE and chimera peptides would be disrupting the membrane potential of MATa cells as part of their toxic ...
# [3] = system: S. cerevisiae MATa and MATα cells; assay: Internalization in yeast cells exposed separately, imaging flow cytometry; type: cell-based, Saccharomyces cerevisiae; settings: for penetrating efficiency in MATa cells compared among the targeted CPPs: MATa exposed separately or mixed with MATα cells
# Protocol: We adapted a previous protocol reported to analyze fluorescent single yeast cells. Briefly, cells were grown overnight and diluted to a final optical density measured at 600 nm of 1.0. A total of 116 μL of this cell dilution was mixed with 4 μL of a solution of penetrating peptide at 200 mM in a 1.5 mL plastic tube. This mixture was analyzed every 5 min for 60 min in a flux cytometer coupled to a multiphotonic microscope (Amnis ImageStream Mark II). In that equipment, 10,000 pictures were taken to record green (excitation 488 nm and emission 509 nm) and red (excitation 561 nm and emission 669 nm) fluorescence and the bright field. These images were then analyzed with the IDEAS software that is part of the Amnis equipment, to identify peptide internalization (red fluorescence). Two types of experiments were conducted; in one set, we exposed MATa and MATα cells separately to peptides α-NLS-C, NLS-α-CE and chimera (see Table 1 for a description of the peptide sequences). In another set of experiments, we exposed MATa and MATα cells mixed together to different penetrating peptides labeled with TAMRA; for this last experiment, the ribosomal protein RPL9A was fused to GFP in MATa cells, to facilitate their distinction from MATα cells. Events recorded in this way were further analyzed to discard cell debris and images that included clumps of cells. Images with a total area of 20–50 μm and an aspect ratio of 0.7 allowed us to identify events that include 1 or 2 cells; furthermore, images with less than 1500 arbitrary units of fluorescence were discarded. The data were plotted using ggplot2 from the R package. Please note that the reported experimental conditions were selected among several trials on the AMNIs equipment to identify the best conditions for these experiments.
# [4] = system: S. cerevisiae MATa and MATα cells; assay: Internalization in yeast cells followed by confocal microscopy; type: cell-based, Saccharomyces cerevisiae; settings: 50 μM peptide, OD600 0.4, cells in 0.5% agarose, pictures every 3 min for 1 h, two sets of experiments
# Protocol: To confirm that the fluorescence detected using the AMNIS multiphotonic microscope was the fluorescence inside cells, we carried out confocal microscopy experiments (Zeiss LSM510 META) by adapting a previous report. For that end, yeast cells for each yeast haplotype were grown overnight for 14 h in YPD (1% yeast extract (USB Corp., Cleveland, OH, USA), 2% bacto peptone (Becton, Dickinson and Company, Franklin Lakes, NJ, USA) and 2% glucose (Merck, Naucalpan de Juárez Edo. De Mexico, Mexico). Cells were then centrifuged and resuspended in YPD. An OD600 of 0.4 was used for the confocal microscopy experiments, whereas for the cytometry experiments (above) a value of 1.0 was chosen. Yeast cells were immobilized using low melting point agarose (Agarose SFR VWR Life Technologies, Radnor PA, USA) at 0.5%. The peptide concentration used for these experiments was 50 μM. Prior to performing any observations, 3 cycles of sonications (sonicator Bransonic 32) for 3 min each were performed to dissolve potential peptide aggregates. A total of 12.5 μL of yeast inoculum, 1.5 μL of TAMRA-α-NLS-C solution and 1 μL of previously heated agarose were placed on a microscope slide. […] Images were analyzed using Fiji software and the fluorescence intensity recorded for each cell was divided by the area of the corresponding cell.
# HEK293T cells = assay: Internalization assay, epifluorescence microscopy; type: cell-based; settings: 10 μM, 30 min, fixed cells, 2700 cells (3 replicates)
# Protocol: as §1, with “Internalization analysis was performed by confocal microscopy.” left out, “Images were acquired with a Zeiss LSM800 microscope using the ZEN 2.6 (blue edition) software.” left out, “2021). […]” for “2021).”
# HEK293T-NEP cells = assay: Internalization assay, epifluorescence microscopy; type: cell-based; settings: 10 μM, 30 min, fixed cells, 2700 cells (3 replicates)
# Protocol: HEK293T cells were transfected as previously described with the plasmid PCSC-SP-PW-Nep (Addgene, Watertown, MA, USA), which contains the human neprilysin (MME) gene. This transfection was done with the use of the reagent polyethylenimine (PEI) according to the stable transfection procedures for adherent cells. The transfected HEK293T cells were cultured with DMEM containing 10% FBS and Zeocin 400 µg/mL (ThermoFisher, Waltham, MA, USA) to select stably transfected cells, which were recovered after the third day of transfection. […]
# This procedure was adapted from a previously reported protocol. […] Due to a slight precipitation of the peptides, to avoid interference with the quantification, the 10% with the highest fluorescence intensity were considered outliers and were removed for all conditions. […] Cells were incubated with any of the three peptides at a concentration of 5 μM for 30 min (the fluorescence was strong and the precipitation reduced), then cell membranes were stained with the CellMask^TM Green Plasma Membrane Stain (ThermoFisher, Waltham, MA, USA) following specifications of the provider. […] All images were analyzed with the Fiji/ImageJ Software and are available at http://bis.ifc.unam.mx/ironbios/selmoonCPP/ (accessed on 21 July 2021). […]
# [5] = epifluorescence, 10, 5 and 1 μM, 30 min
substance,measurement,setting,value
5(6)-carboxytetramethyl rhodamine [TAMRA],internalization of the free fluorophore,yeast or mammalian cells,do not internalize
"D-(YGRKKRRQRRRFFGFLADDDDEE) [D-TatNepNoCPP, all-D isomer of TatNepNoCPP, negative control, N-terminal TAMRA]",internalization by orthogonal projection,[1],less internalization compared with the other two peptides in all three cell lines
same,pattern of fluorescence,[1],diffused layer covering the cells
same,concentration dependence of internalization,[2]; [5],does not present a concentration dependent internalization
same,internalization compared between peptides,[2]; [5],less internalized in all cell lines; also recorded: TatNepNoCPP > TatNep > D-TatNepNoCPP
FRKWRRKPKKKRKVWWRKVKRRWHWLQLKPGQPMY [NLS-α-CE],toxicity to MATa cells,MATa cells,toxic to MATa cells
same,penetrating efficiency in MATa cells compared among the targeted CPPs,[3],penetrate less efficiently MATa cells expressing the targeted surface protein (Ste2p) than the α-NLS-C peptide
KRRWRFVWMNPKKKRKVPPWPYLLWWHWLQLKPGQPMY [Chimera],toxicity to MATa cells,MATa cells,toxic to MATa cells
same,penetrating efficiency in MATa cells compared among the targeted CPPs,[3],penetrate less efficiently MATa cells expressing the targeted surface protein (Ste2p) than the α-NLS-C peptide
RLWHWLQLKPGQPMYWRQPKSKRKVRR [α-NLS-C],"selectivity of internalization (fluorescence intensity inside cells), MATa vs MATα","[3]; living cells exposed separately, OD600 1.0, TAMRA-labelled peptide (4 μL of 200 mM solution in 120 μL), read every 5 min for 60 min, Amnis ImageStream, 10,000 cells per condition, repeated at least 3 times",more selectivity towards MATα cells than NLS-α-CE and chimera peptides
same,"TAMRA fluorescence inside cells, MATa vs MATα",[4],cells expressing the α-pheromone receptor STE2 (MATa cells) internalized more fluorescence than cells that did not express the receptor
"YGRKKRRQRRRFFG [TatNep, peptide produced by digestion of TatNepNoCPP by neprilysin, positive control for internalization, N-terminal TAMRA]",pattern of fluorescence,[1],punctuated fluorescence
same,"ratio between medians of normalized fluorescence intensity, column peptide against row peptide D-TatNepNoCPP",HEK293T cells,2.8
same,"ratio between medians of normalized fluorescence intensity, column peptide against row peptide TatNepNoCPP",HEK293T cells,2.4
same,internalization compared between cell lines,[2]; [5],internalized in HEK293T and the over-expressing HEK293T-NEP cells with the same efficiency; also recorded: HeLa cells internalized more of this peptide at 10 μM than the other cell lines
same,internalization compared between peptides,[2]; [5],TatNepNoCPP > TatNep > D-TatNepNoCPP
YGRKKRRQRRRFFGFLADDDDEE [TatNepNoCPP],"ratio between medians of normalized fluorescence intensity, column peptide against row peptide TatNep",HEK293T-NEP cells,2.4
same,pattern of fluorescence,[1],diffused layer covering the cells
same,"internalization, times higher than TatNep","[2]; average of the ratios of medians per cell line, 10 μM",3 times
same,internalization compared between cell lines,[2]; [5],HeLa > HEK293T > HEK293T-NEP
same,internalization compared between peptides,[2]; [5],best internalization with respect to the other peptides for any cell line; also recorded: TatNepNoCPP > TatNep > D-TatNepNoCPP
